Marks after values point to notes of the source that are not given here.

The subject of data set [1] is open chest rats in the absence of myocardial ischemia. Description: Hemodynamic parameters in open chest rats in the absence of myocardial ischemia (first test procedure). To be noted: for +dP/dt / Heart Rate / Mean BP / LVPdev: percent change from pre-drug baseline 15 minutes after drug administration. The format is in vivo, rat. As to the method:
Male Sprague-Dawley rats weighing 505±5 g were anesthetized with sodium pentobarbital (50 mg/kg I.P.). An endotracheal tube was secured in place and connected to a small-animal respirator (Harvard Apparatus, Model 683, South Natick, Mass.) set on 100 breaths/min, with a tidal volume of 2-3 mnL/breath. Body temperature was maintained using a heating pad with circulating warm water (K-model 100, Baxter Laboratories). A left thoracotomy was performed, the heart exposed and the pericardium removed. Left ventricular pressure was measured using a saline-filled polyethylene catheter attached to an angiocatheter (20 Gauge) inserted through the apex of the heart and connected to a P23 ID Statham/Gould pressure transducer. Arterial pressure was monitored via a saline-filled polyethylene catheter (PE 50) introduced into the left carotid artery. The right jugular vein was also cannulated with a polyethylene catheter (PE 50) for IV drug infusions and volume repletion (0.9% NaCl). Subcutaneous needles were positioned in the limbs for ECG recordings. […]

Data set [2] concerns Adult human kidney proximal tubular (HK-2) cells. To be noted: HK-2 cells cultured for 0-20 hr; necrotic form of cell death; cited from earlier work.
The test system of a further data set is Ca+2 current (ICa-L). As to the kind of experiment: L-type Ca2+ current recording in isolated ventricular myocytes (patch clamp). The format is cell-based, cat. On the procedure: The latter process was performed three times.
Patch-clamp current and voltage recordings were made with the ruptured patch whole-cell configuration at 36-37° C. (14). For studies on L-type Ca^2+ currents, cells were bathed with modified Tyrode's containing (in mM): 157 TEA-Cl, 5 CaCl2, 0.5 MgCl2, and 10 HEPES. Electrode internal solution contained (in mM): 10 L-Glutamic Acid, 20 CsCl, 10 EGTA, 1 MgCl2, 1 CaCl2, 20 HEPES, and 5 ATP-Mg2; pH adjusted with CsOH. In all of the studies, electrode resistance was measured to be 2-3.5 MΩ. The reference zero potential was adjusted in the bath before forming seals. Recordings were performed with an Axon Instruments 200B amplifier (Axon Instruments, Culver City, Calif. USA) interfacing a DigiData 1200 DA/AD acquisition system. Ionic currents were evoked by depolarizing voltage step (1 sec-long) from −30 to +60 mV, in 10-mV increments, from a holding potential of −40 mV delivered at the frequency of 1 Hz. Action potentials were elicited at a frequency of 1 Hz by injection of brief depolarizing current pulses. Software used in data acquisition and analysis was pClamp v.6.04 and Origin v 5.0 (Microcal Software, Northampton, Mass.).

Data set [3] concerns isolated feline ventricular myocytes. To be noted: 25 μM, soon after exposure.
The subject of data set [4] is open chest rats undergoing myocardial ischemia/reperfusion. Description: Determination of infarct size (TTC staining). The format is in vivo, rat. Conditions: 3 mg/kg i.v. On the procedure:
(§1) In the second test procedure, the main coronary artery of rats undergoing coronary occlusion was located and occluded close to its origin using a 5-0 suture passed underneath the vessel that could be tightened over a short section of PE tubing (PE 20) to initiate regional ischemia. Reperfusion was reinstated by removing the short segment of PE tubing.
The heart was removed and sliced in five to six coronal sections, which were immersed in 1% triphenyltetrazolium chloride (TTC) for 10-15 minutes. The heart sections were removed, blotted dry and traced onto acetate sheets. The areas of infarction were clearly demarcated by a pale appearance in the ischemic zone, and a brick red color of non-infarcted myocardium. The areas of all sections were determined by planimetric methods and infarct area was expressed as a percentage of the left ventricle.

Data set [5] has the same test system. As to the kind of experiment: Survival of open chest rats undergoing myocardial ischemia/reperfusion (second test procedure). Type of data set: in vivo, rat. To be noted: for percent survival: 3 mg/kg iv.
In a further data set the test system is TNF. As to the kind of experiment: Serum TNF (ELISA) in open chest rats undergoing myocardial ischemia. Type of data set: in vivo, rat. Conditions: for serum concentration of TNF: mean ± sem. As to the method: Male Sprague-Dawley rats weighing 505±5 g were anesthetized with sodium pentobarbital (50 mg/kg I.P.). An endotracheal tube was secured in place and connected to a small-animal respirator (Harvard Apparatus, Model 683, South Natick, Mass.) set on 100 breaths/min, with a tidal volume of 2-3 mnL/breath. Body temperature was maintained using a heating pad with circulating warm water (K-model 100, Baxter Laboratories). A left thoracotomy was performed, the heart exposed and the pericardium removed. Left ventricular pressure was measured using a saline-filled polyethylene catheter attached to an angiocatheter (20 Gauge) inserted through the apex of the heart and connected to a P23 ID Statham/Gould pressure transducer. Arterial pressure was monitored via a saline-filled polyethylene catheter (PE 50) introduced into the left carotid artery. The right jugular vein was also cannulated with a polyethylene catheter (PE 50) for IV drug infusions and volume repletion (0.9% NaCl). Subcutaneous needles were positioned in the limbs for ECG recordings.
as §1
Blood samples were collected in syringes in the absence of any anticoagulant and immediately placed in Microtainer® serum separator tubes (Becton Dickinson) and centrifuged at 2000 g for 6 minutes. The serum was removed, frozen immediately, and stored at −20° C. until the analysis could be performed. The concentration of serum TNF collected at preselected time points was determined for individual rats by enzyme-linked immunosorbent assay (ELISA), utilizing the Factor-Test-X (Genzyme Inc, Cambridge, Mass., Cat #80-3905-01) according to the manufacturer's instructions. Briefly, 100 μL of serum was diluted 1:2 in 0.1% bovine serum albumin/phosphate buffered saline and added in duplicate to a 96-well microtiter plate. A standard curve was generated by plotting the concentrations of rat TNF standards versus their absorbances. […] The detection limit of this assay was 10 pg/mL. Additionally, the manufacturer has determined that this ELISA is highly specific for rat TNF.

[6] abbreviates: 1.0 mg/kg iv (second dose, after 0.3 mg/kg iv).
Where [7] appears, read: following infusion (0.1+0.3 mg/kg).
[8] abbreviates: 0.1 mg/kg iv (first dose), mean ± sem.
Setting [9] is: 0.3 mg/kg iv (second dose, after 0.1 mg/kg iv).

With `CCCCCCCCCCCCC/C=C/[C@@H](O)[C@@H](N)CO` [Sphingosine], in data set [1] (0.3 mg/kg iv (first dose)), the “+dP/dt” value is −33 ± 12%, the “Heart Rate” value was −4 ± 4% and the “Mean BP” value is given as −24 ± 12%. Further, in data set [1] (setting [6]), the “+dP/dt” value was −32 ± 18%, the “Heart Rate” value is −18 ± 1%, the LVPdev is reported as −24 ± 14% and the “Mean BP” value is −17 ± 19%. Moreover, in data set [1] (setting [7]), the “+dP/dt reduced from baseline” value was 33±12% and the “LVP depressed from baseline” value was determined as 24±8%. For the same compound, the “concentration inducing rapid, concentration-dependent cytotoxicity” value in data set [2] was ≥ 10 µM. The “block of ICa-L” value in the data set with Ca+2 current (ICa-L) (2.5 μM) was 17±7%. The “block of ICa-L” value in the data set with Ca+2 current (ICa-L) (25 μM) came out at 75±4%. Besides, the “myocardial cell death (morphology, lack of viability)” value in data set [3] was “lead to myocardial cell death”.

Turning to Etanercept, the “Infarct size, expressed as a percentage of the left ventricle” value in data set [4] is 24±3%. Also, the “mortality resulting from myocardial ischemia/reperfusion” value in data set [5] (3 mg/kg i.v. administered immediately before occlusion) is listed as “significantly reduced mortality”. In data set [5] (3 mg/kg i.v., t=90 minutes of reperfusion), the rats dead is 1 out of 9. In addition, the percent survival in data set [5] (0 min (end of ischemia)) was 100%; in data set [5] (30 min reperfusion), 100%; in data set [5] (60 min reperfusion), 100%; in data set [5] (90 min reperfusion), 89%; in data set [5] (120 min reperfusion), 89* percent; in data set [5] (150 min reperfusion), 88* percent. This compound also yielded a percent survival in data set [5] (−30 min (baseline)) of 100%. For the same compound, the “serum concentration of TNF” value with TNF (0 min (end of ischemia)) amounted to 2299 ± 357 pg/mL; in the data set with TNF (30 min reperfusion) it was 2057 ± 349 pg/mL; in the data set on TNF (60 min reperfusion), 1592 ± 258 pg/mL; in the data set on TNF (90 min reperfusion), 1108 ± 279 pg/mL; in the data set on TNF (120 min reperfusion), 721 ± 209 pg/mL; in the data set on TNF (150 min reperfusion), 580 ± 193 pg/mL. In addition, the “serum concentration of TNF” value in the data set with TNF (−30 min (baseline)) stood at 0 ± 0 pg/mL. Moreover, the “effect on TNFα spike in concentration in response to vascular occlusion” value in the data set with TNF (at 0 minutes) was “significantly reduced”.

Take Sphingomyelin: in data set [1] (setting [8]), the “+dP/dt” value is on record as 1 ± 13%, the “Heart Rate” value is 7 ± 9%, the LVPdev worked out at 3 ± 11% and the “Mean BP” value is reported as −3 ± 17%. Also, in data set [1] (setting [9]), the “+dP/dt” value is recorded as 6 ± 15%, the “Heart Rate” value worked out at 8 ± 10%, the LVPdev stood at 4 ± 12% and the “Mean BP” value is given as 2 ± 2%.

The values above are taken from patent US20020150582A1, “Method of treating or inhibiting cellular injury or cell death” (priority 2001, published 2002).
